3 molecules from ChEMBL document CHEMBL5331141 can be followed below.

Activity calls are given as the source filed them. The calls are words filed in the database; no cut-off is given here.

The test concerns HEK293. The test can be described thus: Effect on HEK293 cells lacking human mu opioid receptor assessed as inhibition of cAMP accumulation at 1 uM. The format is functional, cell-based. A general note: cAMP levels reflect the balance of adenylyl cyclase and phosphodiesterase activity.
Consider `C=CCN1CC[C@]23c4c5ccc(O)c4O[C@H]2C(=O)CC[C@@]3(O)[C@H]1C5`, for which the outcome was inactive.

For the molecule `C=C(C)[C@@H]1CCC(C)=C[C@H]1c1c(O)cc(CCC)cc1O`, the outcome was inactive.

On to `C=C(C)[C@@H]1CCC(C)=C[C@H]1c1c(O)cc(CCCCC)cc1O`, for which the result was inactive.
